Reference: ChEMBL document CHEMBL5584291, “Rational design of small-sized peptidomimetic inhibitors disrupting protein-protein interaction” (RSC Med Chem, 2024)
pIC50, pKi: −log10 of the molar value. Values belong to the compound of their own block, whether it stands above or below them. *1 amine or outer side, *2 acyl side, *3 side chain or, on linkers, in order; H or OH if unused. Where a SMILES comes first, the peptide text is derived from it. Bridges are numbered along the chain shown (N, C = ends). [ ]: non-standard residue; d: D form. The star is where a group is joined. ξ: configuration not given here. X2 = c1ccc(-c2cn(CC3CCCCC3)c([C@@H]3CCCN3*)n2)cc1; dαMeDab = C[C@](CCN[*:3])(N[*:1])C(=O)[*:2]; X1 = NC(CO)C(=O)NC(Cc1ccccc1)C(=O)NCCCCN*; Ala(cPent) = N[C@@H](CC1CCCC1)C(=O)O; Arg(Me) = CNC(=N)NCCC[C@H](N)C(=O)O; d(αMeK) = C[C@@](N)(CCCCN)C(=O)O; Pentanoyl(4-Me) = CC(C)CCC(=O)*; dPhg = N[C@@H](C(=O)O)c1ccccc1; Isobutyryl = CC(C)C(=O)*; ξE = NC(CCC(=O)O)C(=O)O; Abu = CC[C@H](N)C(=O)O; Dap = NC[C@H](N)C(=O)O

Legend:
Splenocyte = experiment: Inhibition of mouse splenocyte proliferation at 100 nM relative to control; assay type: functional
[1] = target: Programmed cell death protein 1/Programmed cell death 1 ligand 1 (Homo sapiens, UniProt Q15116+Q9NZQ7); experiment: Inhibition of PD-1/PD-L1 (unknown origin) protein-protein interaction by HTRF assay; assay type: protein-complex assay
Sequence of Programmed cell death protein 1/Programmed cell death 1 ligand 1 (Q15116 whole entry): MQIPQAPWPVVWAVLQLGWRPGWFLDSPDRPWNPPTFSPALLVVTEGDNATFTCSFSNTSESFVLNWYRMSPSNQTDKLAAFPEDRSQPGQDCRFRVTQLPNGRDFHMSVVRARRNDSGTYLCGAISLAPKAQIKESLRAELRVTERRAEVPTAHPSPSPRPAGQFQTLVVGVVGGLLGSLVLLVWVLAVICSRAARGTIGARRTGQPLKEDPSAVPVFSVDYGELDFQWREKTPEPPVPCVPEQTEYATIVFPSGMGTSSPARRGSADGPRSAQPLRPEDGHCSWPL
Sequence of Programmed cell death protein 1/Programmed cell death 1 ligand 1 (Q9NZQ7 whole entry): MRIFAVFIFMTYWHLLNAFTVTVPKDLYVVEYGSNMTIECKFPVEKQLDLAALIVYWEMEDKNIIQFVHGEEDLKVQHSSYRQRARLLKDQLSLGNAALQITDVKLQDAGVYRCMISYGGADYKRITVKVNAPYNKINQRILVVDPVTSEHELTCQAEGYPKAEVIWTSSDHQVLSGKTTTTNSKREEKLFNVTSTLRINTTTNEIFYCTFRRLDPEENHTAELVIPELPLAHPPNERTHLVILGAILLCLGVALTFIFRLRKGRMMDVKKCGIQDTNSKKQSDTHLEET

B16-F10 = experiment: Antitumor activity against mouse B16-F10 cells xenografted in C57BL/6 mouse assessed as reduction in lung metastasis at 5 mg/kg, ip administered once daily for 14 days relative to control; assay type: functional; design: scale not given: the % may be the effect or the level left; conditions: time 14 day
[2] = Inhibition of human full length WDR5/RbBP5 (1 to 538 residues)/ASH2L (1 to 635 residues) expressed in Rosetta2 BL21 (DE3) pLysS incubated for 90 mins by SPA based histone methyltransferase assay
[3] = target: Histone-lysine N-methyltransferase, H3 lysine-79 specific (Homo sapiens, UniProt Q8TEK3); experiment: Binding affinity to DOT1L (unknown origin) assessed as inhibition constant
Sequence of Histone-lysine N-methyltransferase, H3 lysine-79 specific (Q8TEK3 whole entry): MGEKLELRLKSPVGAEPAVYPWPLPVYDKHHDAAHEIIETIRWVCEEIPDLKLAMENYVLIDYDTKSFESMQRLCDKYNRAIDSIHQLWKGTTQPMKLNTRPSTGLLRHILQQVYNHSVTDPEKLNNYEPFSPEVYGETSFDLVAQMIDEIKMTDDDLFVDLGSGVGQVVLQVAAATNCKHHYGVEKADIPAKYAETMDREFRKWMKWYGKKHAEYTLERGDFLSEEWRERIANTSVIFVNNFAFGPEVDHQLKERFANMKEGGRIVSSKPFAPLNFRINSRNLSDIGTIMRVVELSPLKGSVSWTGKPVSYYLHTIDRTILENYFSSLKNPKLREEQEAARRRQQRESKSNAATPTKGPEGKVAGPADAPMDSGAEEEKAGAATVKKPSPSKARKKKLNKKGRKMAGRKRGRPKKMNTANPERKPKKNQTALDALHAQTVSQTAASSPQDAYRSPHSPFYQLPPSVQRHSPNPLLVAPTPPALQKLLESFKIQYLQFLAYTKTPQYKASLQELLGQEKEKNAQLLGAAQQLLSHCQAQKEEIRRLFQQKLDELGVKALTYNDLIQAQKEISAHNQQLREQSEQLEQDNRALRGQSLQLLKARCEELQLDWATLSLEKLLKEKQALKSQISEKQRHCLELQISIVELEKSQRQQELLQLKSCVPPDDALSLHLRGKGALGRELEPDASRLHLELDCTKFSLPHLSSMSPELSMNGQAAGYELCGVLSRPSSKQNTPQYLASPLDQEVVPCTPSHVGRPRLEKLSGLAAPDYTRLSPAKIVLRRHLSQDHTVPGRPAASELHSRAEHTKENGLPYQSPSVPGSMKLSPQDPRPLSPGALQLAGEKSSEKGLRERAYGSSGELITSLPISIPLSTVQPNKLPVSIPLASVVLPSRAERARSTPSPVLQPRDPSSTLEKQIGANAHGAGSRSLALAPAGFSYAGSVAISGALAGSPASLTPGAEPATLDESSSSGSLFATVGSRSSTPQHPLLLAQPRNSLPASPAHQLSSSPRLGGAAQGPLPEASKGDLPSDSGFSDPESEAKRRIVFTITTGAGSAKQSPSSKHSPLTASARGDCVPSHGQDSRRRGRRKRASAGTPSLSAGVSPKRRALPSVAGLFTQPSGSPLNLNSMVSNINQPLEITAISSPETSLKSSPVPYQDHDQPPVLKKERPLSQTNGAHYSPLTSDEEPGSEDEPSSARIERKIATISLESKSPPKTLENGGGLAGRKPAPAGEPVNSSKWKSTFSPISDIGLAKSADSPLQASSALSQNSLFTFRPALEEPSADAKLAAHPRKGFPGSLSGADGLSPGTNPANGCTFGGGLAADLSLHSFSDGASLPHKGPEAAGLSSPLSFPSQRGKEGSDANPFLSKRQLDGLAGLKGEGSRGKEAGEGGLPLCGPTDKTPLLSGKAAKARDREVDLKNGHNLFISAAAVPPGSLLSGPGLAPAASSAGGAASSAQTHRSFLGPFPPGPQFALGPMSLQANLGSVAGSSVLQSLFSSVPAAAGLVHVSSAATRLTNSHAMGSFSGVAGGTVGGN

SMILES: NCCCC[C@H](NC(=O)N[C@@H](CC(N)=O)C(=O)NNC(=O)[C@@H](N)CO)C(=O)O
inhibition at 0.1 µM (Splenocyte): 87%

SMILES: C[C@H](O)[C@H](NC(=O)N[C@@H](CC(N)=O)C(=O)NNC(=O)[C@@H](N)CO)C(=O)O
inhibition at 0.1 µM (Splenocyte): 68%

SMILES: CC(O)[C@H](NC(=O)N[C@@H](CC(N)=O)C1NC([C@@H](N)CO)=NO1)C(=O)O (stereo partly drawn)
pIC50 [1]: 7.77

SMILES: C[C@@H](O)[C@@H]1NCC(=O)C(NC(=O)[C@@H](N)CO)CCC(=O)NCCCCC(C(=O)N[C@@H](CO)C(=O)N[C@@H](Cc2ccccc2)C(N)=O)NC(=O)[C@H](CO)NC1=O (stereo partly drawn)
Activity (B16-F10): 54%

SMILES: C[C@@H](O)[C@H](NC(=O)[C@H](CC(N)=O)NC(=O)[C@@H](N)CO)C(=O)N[C@@H](CO)C(=O)NC(CCC(=O)NCCCCNC(=O)C(Cc1ccccc1)NC(=O)C(N)CO)C(N)=O (stereo partly drawn) (H-SNTS[ξE](X1)-NH2)
Activity (B16-F10): 4%

pIC50 [2]: 9.05
SMILES: CC[C@@H]1NC(=O)[C@H](CCCNC(=N)N)NC(=O)[C@](C)(NC(=O)C(C)C)CCCCNC(=O)[C@@H](c2ccccc2)NC1=O (Isobutyryl-[d(αMeK)]R[Abu][dPhg]; lactam 1-C)

pIC50 [2]: 9.05
SMILES: CC[C@@H]1NC(=O)[C@H](CCCNC(=N)NC)NC(=O)[C@](C)(NC(=O)C(C)C)CCNC(=O)[C@@H](c2ccccc2)NC1=O (Isobutyryl-[dαMeDab][Arg(Me)][Abu][dPhg]; lactam 1-C)

pKi [3]: 7.64
SMILES: CC(C)CCC(=O)N1CCC[C@H]1C(=O)N[C@H](C(=O)N[C@@H](CN)C(=O)N[C@@H](CC1CCCC1)C(=O)N1CCC[C@H]1c1nc(-c2ccccc2)cn1CC1CCCCC1)C(C)C ({Pentanoyl(4-Me)}-PV[Dap][Ala(cPent)]-X2)
